Several values for one entry are separate records, joined by “and”; a condition that tells them apart may be missing. Equal values may be shown once.
Assays:
S. aureus ATCC25923 = assay: MIC by microdilution, S. aureus ATCC25923; assay type: cell-based, Staphylococcus aureus; settings: S. aureus ATCC25923 (MecA negative, wild-type), Mueller-Hinton broth, in duplicate
Summary of the method: (§1)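 Broth microdilution per CLSI document M07-A10, Mueller-Hinton medium, each MIC run in duplicate. Strains include E. coli ATCC25922 (wild-type), S. epidermidis ATCC35984 (MecA positive) and S. aureus ATCC700699 (MecA positive, glycopeptide resistant), within a mixed panel of susceptible and resistant Gram-positive/Gram-negative bacteria.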

S. aureus ATCC29213 = assay: MIC by microdilution, S. aureus ATCC29213; assay type: cell-based, Staphylococcus aureus; settings: S. aureus ATCC29213 (MecA negative, wild-type), Mueller-Hinton broth, in duplicate
Summary of the method: as §1

S. aureus ATCC700699 = assay: MIC by microdilution, S. aureus ATCC700699; assay type: cell-based, Staphylococcus aureus; design: unit not given here; settings: S. aureus ATCC700699 (MecA positive, glycopeptide resistant), in duplicate
Summary of the method: as §1

S. aureus ST20131365 = assay: MIC by microdilution, S. aureus ST20131365; assay type: cell-based, Staphylococcus aureus; settings: S. aureus ST20131365 (MecA positive, glycopeptide resistant), in duplicate
Summary of the method: as §1

S. epidermidis ATCC14990 = assay: MIC by microdilution, S. epidermidis ATCC14990; assay type: cell-based, Staphylococcus epidermidis; settings: S. epidermidis ATCC14990 (MecA negative, wild-type), in duplicate
Summary of the method: as §1

S. epidermidis ATCC35984 = assay: MIC by microdilution, S. epidermidis ATCC35984; assay type: cell-based, Staphylococcus epidermidis; settings: S. epidermidis ATCC35984 (MecA positive), in duplicate
Summary of the method: as §1

E. faecalis JH2-2 = assay: MIC by microdilution, E. faecalis JH2-2; assay type: cell-based, Enterococcus faecalis; design: unit not given here; settings: E. faecalis JH2-2 (wild-type), in duplicate
Summary of the method: as §1

E. faecalis UCN41 = assay: MIC by microdilution, E. faecalis UCN41; assay type: cell-based, Enterococcus faecalis; design: unit not given here; settings: E. faecalis UCN41 (VanA positive, glycopeptide resistant), in duplicate
Summary of the method: as §1

E. faecalis V583 = assay: MIC by microdilution, E. faecalis V583; assay type: cell-based, Enterococcus faecalis; settings: E. faecalis V583 (VanB positive, glycopeptide resistant), in duplicate
Summary of the method: as §1

E. faecium ATCC19434T = assay: MIC by microdilution, E. faecium ATCC19434T; assay type: cell-based, Enterococcus faecium; design: unit not given here; settings: E. faecium ATCC19434T (wild-type), in duplicate
Summary of the method: as §1

E. faecium BM4147 = assay: MIC by microdilution, E. faecium BM4147; assay type: cell-based, Enterococcus faecium; design: unit not given here; settings: E. faecium BM4147 (VanA positive, glycopeptide resistant), in duplicate
Summary of the method: as §1

E. faecium AUS0004 = assay: MIC by microdilution, E. faecium AUS0004; assay type: cell-based, Enterococcus faecium; settings: E. faecium AUS0004 (VanB positive, glycopeptide resistant), in duplicate
Summary of the method: as §1

E. coli ATCC25922 = assay: MIC by microdilution, E. coli ATCC25922; assay type: cell-based, Escherichia coli; settings: E. coli ATCC25922 (wild-type), in duplicate
Summary of the method: as §1

[1] = system: panel of Gram-positive and Gram-negative strains; assay: Antibacterial profile on the selected panel of strains; assay type: cell-based; settings: for antimicrobial / antibacterial activity (in words): summary of Tables 1-12
Summary of the method: as §1

human hepatocyte = assay: Human hepatocyte cytotoxicity profile; assay type: cell-based; settings: human hepatocytes
Protocol: FIG. 1 is a diagram representing the TMB3 human hepatocyte cytotoxicity between 7 to 25 μM (FIG. 1 A) and the ampicillin human hepatocyte cytotoxicity between 7 to 25 μM (control) (FIG. 1B. In the diagram, the abscissa represents the concentration in Log per μM and the ordinate the viability of the cells in percentage compared to the human hepatocyte culture without ampicillin trihydrate or TMB3.
The human hepatocyte cytotoxicity profile has been evaluated between 7 and 25 μM for TMB derivatives as a toxicity appeared from 25 μM for the initial hit TMB3 during a preliminary assessment.

[2] = system: S. epidermidis ST20140436; assay: MIC by microdilution, S. epidermidis ST20140436; assay type: cell-based, Staphylococcus epidermidis; settings: S. epidermidis ST20140436 (MecA positive, glycopeptide resistant), in duplicate
Summary of the method: as §1

[3] = system: S. epidermidis ST20150446; assay: MIC by microdilution, S. epidermidis ST20150446; assay type: cell-based, Staphylococcus epidermidis; settings: S. epidermidis ST20150446 (MecA positive, glycopeptide resistant), in duplicate
Summary of the method: as §1

[4] = system: Clostridium difficile ATCC700057; assay: MIC by microdilution, Clostridium difficile; assay type: cell-based; settings: strain ATCC70057 [sic] (Tables 1-2) / ATCC700057 (Tables 3-10), in duplicate

SMILES	Minimal Inhibitory Concentration (MIC) (S. aureus ATCC25923)	Minimal Inhibitory Concentration (MIC) (S. aureus ATCC29213)	Minimal Inhibitory Concentration (MIC) (S. aureus ATCC700699)	Minimal Inhibitory Concentration (MIC) (S. aureus ST20131365)	Minimal Inhibitory Concentration (MIC) (S. epidermidis ATCC14990)	Minimal Inhibitory Concentration (MIC) (S. epidermidis ATCC35984)	Minimal Inhibitory Concentration (MIC) (E. faecalis JH2-2)	Minimal Inhibitory Concentration (MIC) (E. faecalis UCN41)	Minimal Inhibitory Concentration (MIC) (E. faecalis V583)	Minimal Inhibitory Concentration (MIC) (E. faecium ATCC19434T)	Minimal Inhibitory Concentration (MIC) (E. faecium BM4147)	Minimal Inhibitory Concentration (MIC) (E. faecium AUS0004)	Minimal Inhibitory Concentration (MIC) (E. coli ATCC25922)	MICs measured, as range of concentrations ([1]; depending on the bacteria strains)	antimicrobial / antibacterial activity (in words) [1]	concentration at which cytotoxicity appears (human hepatocyte; evaluated between 7 and 25 μM)	concentration from which toxicity appeared (human hepatocyte; preliminary assessment)	Minimal Inhibitory Concentration (MIC) [2]	Minimal Inhibitory Concentration (MIC) [3]	Minimal Inhibitory Concentration (MIC) [4]
CC[P+](CC)(CC)[Au-][c]1nn[nH]c1COC(=O)NC(C(=O)NC1C(=O)N2C1SC(C)(C)C2C(=O)O)c1ccccc1 (stereo not drawn) [TMB3]	0.125 and 0.25	0.125 and 0.25	0.125 and 0.25	0.125 and 0.25	≤0.06	≤0.06	0.5 and 1	1 and 0.5	1	1 and 0.5	2 and 1	1	>8	0.08 to 0.63 µM	have antimicrobial activity	20 µM	25 µM			
CC[P+](CC)(CC)[Au-][c]1nn[nH]c1COC(=O)NCC(=O)O [TMB18]	0.125	0.125	0.125	0.125	≤0.06	≤0.06	0.25	0.25 and 0.5	0.25 and 0.5	0.25	0.5	0.25	>8		have antimicrobial activity			≤0.06	≤0.06	≤0.06
CC[P+](CC)(CC)[Au-][c]1nn[nH]c1COC(=O)N[C@H](Cc1ccccc1)C(=O)O [TMB27]	0.25	0.25 and 0.5	0.25	0.5	≤0.06	≤0.06	0.5	0.5 and 1	1	1	1	2	>8		have antimicrobial activity			0.125	0.125	0.125
CC1(C)S[C@@H]2[C@H](NC(=O)[C@H](NC(=O)CCc3cn(Cc4ccccc4)nn3)c3ccccc3)C(=O)N2[C@H]1C(=O)O [TMB9]	1	1	>8	>8	1	>8	2	8	4	8	>8	>8	>8		do not show an antibacterial activity			8	8/>8	2-4
CC[P+](CC)(CC)[Au-][c]1nn[nH]c1COC(=O)N[C@H](Cc1c[nH]c2ccccc12)C(=O)O [TMB30]	0.25	0.25	0.25	0.25	≤0.06	≤0.06	0.5	0.5	0.5	0.5	1	1	>8		have antimicrobial activity			0.125	0.125	0.125
CC1(C)S[C@@H]2[C@H](NC(=O)[C@H](NC(=O)OCc3cnn[nH]3)c3ccccc3)C(=O)N2[C@H]1C(=O)O [TMB5]	2	2	>8	>8	1	>8	2 and 4	8	4	8	>8	>8	>8		do not show an antibacterial activity			8/>8	>8	4

Source: patent publication US20210284668A1, “GOLD (I)-PHOSPHINE 1,2,3-TRIAZOLE DERIVATIVES WITH ANTIBIOTIC PROPERTIES” (Centre National de la Recherche Scientifique, priority 2018, published 2021)
